Ends that are not written are not given here.
B1: TGF-β2: growth factor from R&D systems; produced and secreted by pancreatic cancer cell lines (protein, UniProt P61812 303-414, looked up)
Transforming growth factor …: ALDAAYCFRNVQDNCCLRPLYIDFKRDLGWKWIHEPKGYNANFCAGACPYLWSSDTQHSRVLSLYNTINPEASASPCCVSQDLEPLTILYYIGKTPKIEQLSNMIVKSCKCS

Tests used:
MUC4 peptides = assay: Immunogenicity of KLH-conjugated MUC4 peptides in rabbits (serum antibody titre); format: in vivo, rabbit; details: ten weeks after immunization with KLH-conjugated peptide
Method: The present invention also provides antibodies capable of immunospecifically binding to MUC4. Polyclonal antibodies directed toward human MUC4 protein may be prepared according to standard methods. In a preferred embodiment, monoclonal antibodies are prepared, which react immunospecifically with the various epitopes of the MUC4 protein. Monoclonal antibodies have been prepared according to general methods of Kohler and Milstein, following standard protocols.

[1] = tested on: MUC4 mRNA expression in PBMC; assay: MUC4 mRNA expression (RT-PCR) in PBMC from healthy volunteers after incubation with cytokines, growth factors or mitogens; format: cell-based, human; details: incubated 24 and 48 hours, serum free, retinoic acid 100 nM, 1 μM, TGF-β2 10, 20 and 200 pg/ml
Method: Freshly prepared PBMC (10×10^6 cells) from healthy volunteers were stimulated with PHA (10 μg/ml) and LPS (20 μg/ml, all from Sigma) for 12 and 24 hours. To study the effect of different cytokines and growth factors on the MUC4 mRNA expression, 10 million PBMC were incubated with TGF-β1 (10; 20 and 200 pg/ml), TGF-β2 (10; 20 and 200 pg/ml) (all from R&D systems, Minneapolis, Minn.), retinoic acid (RA) (100 nM; 1 μM) (Sigma), GM-CSF (100 U/ml) (Immunex Corp. Seattle, Wash.), IL-1β (10 ng/ml), IL-6 (10 ng/ml), IL-9 (50 ng/ml), IFNγ (10 and 20 ng/ml), TNFα (10 and 50 ng/ml) or with IFNγ (10 and 20 ng/ml) in combination with TNFα (10 and 50 ng/ml) (all from PeproTech Inc., Rocky Hill, N.J.) for 24 and 48 hours under serum free conditions.
The single step RNA isolation method was used for RNA preparation as previously described (28,29). In brief, cells were homogenized in a denaturing solution containing 4 M guanidine thiocyanate. The homogenate was mixed sequentially with 2 M sodium acetate (pH 4), phenol and chloroform/isoamyl alcohol. […] The RNA pellet was then resuspended in diethyl pyrocarbonate (DEPC)-treated water, and the final RNA concentration was determined spectrophotometrically by measuring the absorbance at 260 nm and 280 nm (DU 640B, Beckman Coulter, Fullstone Calif.). […]

[2] = tested on: MUC4 expression in pancreatic cancer cells; details: previous work (31); cited from earlier work

Row | Molecule | antibody titre of rabbit sera reacting specifically with the peptide (MUC4 peptides) | induction of MUC4 mRNA expression in PBMC [1] | MUC4 expression after treatment [2]
1 | ATYRPPQPAWMFGD (also: KLH conjugate; listed as Homo sapiens) [MUC4 α, MUC4 peptide synthesized and conjugated to the KLH protein as an immunogen] | 47,338 units |  | 
2 | GARFSYFLNSAEALP (also: KLH conjugate; listed as Homo sapiens) [MUC4 β, MUC4 peptide synthesized and conjugated to the KLH protein as an immunogen] | 31,108 units |  | 
3 | B1 |  | neither incubation with retinoic acid and TGF-β2 nor the activation of T-cells and B-cells with PHA and LPS or incubation with various other cytokines induced MUC4 mRNA expression | resulted in MUC4 expression

— patent US7052859B2, “MUCIN 4 expression as a marker for pancreatic cancer” (The Board of Regents of the University of Nebraska, priority 2000, dated 2006)
